Results from US20240383910A1, “SMALL MOLECULE BTK DEGRADERS AND METHODS OF USE THEREOF” (Baylor College of Medicine, priority 2023, published 2024).

How the values were obtained:
Format in all cases: cell-based
BTK [1] = biological target: T1, BTK (Homo sapiens, UniProt Q06187); assay: Western blotting for BTK in Mino cells; parameters: host or cells: Mino; settings: up to 1000 nM, 24 h, Western blot
Description: Mino cells were seeded into the wells of six-well plates at the density of 5×10^5 cells per mL in 2 mL of complete RPMI-1640 culture medium. After overnight adaptation, cells were treated with serially diluted compounds (from 1,000-1.6 nM, 5-fold dilution) for 24 hours. After treatment, whole cell lysates for immunoblotting were prepared by pelleting Mino cells at 4° C. and 200×g for 5 minutes. The resulting cell pellets were washed once with ice-cold PBS and lysed in 1×RIPA lysis buffer (Alfa Aesar, Cat. No. J62524) supplemented with protease and phosphatase inhibitor cocktail (Thermo Fisher, Cat. No. 78430). Lysates were centrifuged at 15,000×g for 10 min at 4° C. and protein concentrations were assessed using BCA assay (Pierce, Cat. No. 23225). Same amounts of protein (30 μg) for each sample were loaded onto sodium dodecyl sulfate-polyacrylamide gel, separated by electrophoresis (Bio-Rad) at 120 V for 1.5 h and transferred to PVDF membrane using a Transblot Turbo system (Bio-Rad). After blocking for 1 h at room temperature in 1% BSA-TBST, the membranes were immunoblotted with the specified primary antibodies at the dilution of 1:1000 in TBST (Cell Signaling Technology: anti-BTK Cat. No. 8547, anti-IKZF1 Cat. No. 14859, anti-IKZF3 Cat. No. 15103, anti-β-actin Cat. No. 4570, Proteintech: anti-GSPT1, Cat. No. 10763-1-AP) overnight at 4° C. and the HRP-conjugated secondary antibodies (Cell Signaling, Cat. No. 7074, 1:1000 in TBST) for 1 h at room temperature. Imaging was performed using the ECL Prime chemiluminescent Western blot detection reagents (Kindle Biosciences, Cat. No. R1100) by visualization of the blots with an Imager (Kindle Biosciences, Cat. No. D1001). All Western blots were subsequently processed and quantified with Imager software ImageJ and protein level was normalized to the B-actin loading controls.

BTK [2] = biological target: T1, BTK; assay: TMT-based quantitative proteomics in Mino cells, BTK; parameters: host or cells: Mino; settings: 200 nM, 4 h
Description: (§1) Panel a. […] Panel b. […] Panel c. […] Panel d-e. […] Panel g.
(§2) Two million of Mino cells were treated with DMSO or 200 nM of PS-2 for 4 hours in biological triplicates and cells were harvested by centrifugation (200×g, 4° C., 5 min). Lysis buffer (100 mM Triethylammonium bicarbonate (TEAB, Thermo Fisher Scientific, Cat. No. 90114), 2% SDS) was added to the cell pellets and homogenized with a microtip sonicator (Branson) to achieve a cell lysate with a protein concentration of ˜2 mg mL^−1. Protein concentration was determined using BCA assay (Pierce, Cat. No. 23225) and normalized to 1 mg mL^−1. One hundred μg of protein for each sample were reduced and alkylated with 10 mM Tris(2-carboxyethyl) phosphine hydrochloride (TCEP, Sigma, Cat. No. C4706) and 17 mM iodoacetamide (IAA, Sigma, Cat. No. 16125-5G), followed by digestion with trypsin (1:20, enzyme: protein, Thermo Fisher Scientific, Cat. No. 90058) for 16 h shaking at 37° C. […]
(§3) Next, tandem mass tagging (TMT)-based quantitative proteomic profiling was performed to evaluate the degradation specificity of PS-2. […] Quantitative proteomics employing TMT chemical labeling coupled with LC/MS/MS enabled the detection of >2,500 unique proteins without fractionation (FIG. 4f). […]

IKZF1 = biological target: T2, IKZF1 (Homo sapiens, UniProt Q13422+Q96SW2); assay: TMT-based quantitative proteomics in Mino cells, IKZF1; settings: 200 nM, 4 h
T2 construct: host or cells: Mino
Description: as §1, §2, §3

BTK [3] = biological target: T3, BTK (Mus musculus, UniProt P35991); assay: Western blotting for BTK in A20 cells; settings: A20 cells, 40, 200 and 1000 nM, 24 h, Western blot
T3 construct: host or cells: A20
Description: CC-220 is a IKZF1/3 degrader developed by Celgene and used for comparison.
In contrast, PS-3, whose warhead is further reduced compared with PS-2, loses its ability to function as either a BTK degrader or a potent IKZF1/3 molecular glue. To confirm this observation, BTK degradation induced by PS-1, PS-2, and PS-3 was tested in both a human B lymphocyte cell line Ramos and mouse BALB/c B cell lymphoma line A20, with DD-03-171 from the Gray group as a positive control (FIG. 5).

T1 sequence (Q06187 whole entry): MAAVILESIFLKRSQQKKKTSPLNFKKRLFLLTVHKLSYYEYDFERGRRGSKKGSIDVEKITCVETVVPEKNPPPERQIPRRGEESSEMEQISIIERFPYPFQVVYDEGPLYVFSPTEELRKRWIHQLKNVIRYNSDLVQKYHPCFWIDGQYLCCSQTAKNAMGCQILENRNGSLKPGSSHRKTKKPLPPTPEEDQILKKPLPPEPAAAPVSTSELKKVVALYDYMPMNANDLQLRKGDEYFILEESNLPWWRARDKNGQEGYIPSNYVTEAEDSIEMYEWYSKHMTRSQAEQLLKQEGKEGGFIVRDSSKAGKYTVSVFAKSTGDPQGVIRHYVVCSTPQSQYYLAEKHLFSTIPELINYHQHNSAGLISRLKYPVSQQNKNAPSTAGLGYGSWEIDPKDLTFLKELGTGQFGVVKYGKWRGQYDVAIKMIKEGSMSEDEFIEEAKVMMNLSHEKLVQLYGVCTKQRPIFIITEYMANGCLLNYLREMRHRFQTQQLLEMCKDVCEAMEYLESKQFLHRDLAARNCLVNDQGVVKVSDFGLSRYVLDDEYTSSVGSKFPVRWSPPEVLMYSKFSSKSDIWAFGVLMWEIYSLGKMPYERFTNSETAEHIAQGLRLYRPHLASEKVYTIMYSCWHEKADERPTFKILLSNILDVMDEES
T3 sequence (P35991 whole entry): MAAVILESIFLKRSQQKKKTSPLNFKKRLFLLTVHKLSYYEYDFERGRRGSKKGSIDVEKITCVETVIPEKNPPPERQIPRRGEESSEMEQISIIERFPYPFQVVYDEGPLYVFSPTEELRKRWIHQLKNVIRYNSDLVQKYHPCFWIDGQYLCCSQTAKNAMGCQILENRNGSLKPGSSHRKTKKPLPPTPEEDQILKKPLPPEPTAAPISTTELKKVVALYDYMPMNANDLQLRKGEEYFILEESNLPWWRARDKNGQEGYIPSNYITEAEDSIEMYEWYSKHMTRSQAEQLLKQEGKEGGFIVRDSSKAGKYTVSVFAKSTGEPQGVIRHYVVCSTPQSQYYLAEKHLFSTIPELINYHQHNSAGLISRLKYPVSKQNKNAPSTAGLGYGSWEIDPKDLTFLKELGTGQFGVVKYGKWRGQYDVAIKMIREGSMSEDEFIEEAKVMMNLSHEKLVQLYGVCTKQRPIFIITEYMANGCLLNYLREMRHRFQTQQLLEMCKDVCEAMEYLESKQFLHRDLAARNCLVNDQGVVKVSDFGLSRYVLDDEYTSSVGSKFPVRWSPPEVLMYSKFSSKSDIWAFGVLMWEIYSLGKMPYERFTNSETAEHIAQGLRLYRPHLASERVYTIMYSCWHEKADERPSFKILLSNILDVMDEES
T2 sequence (Q13422 whole entry): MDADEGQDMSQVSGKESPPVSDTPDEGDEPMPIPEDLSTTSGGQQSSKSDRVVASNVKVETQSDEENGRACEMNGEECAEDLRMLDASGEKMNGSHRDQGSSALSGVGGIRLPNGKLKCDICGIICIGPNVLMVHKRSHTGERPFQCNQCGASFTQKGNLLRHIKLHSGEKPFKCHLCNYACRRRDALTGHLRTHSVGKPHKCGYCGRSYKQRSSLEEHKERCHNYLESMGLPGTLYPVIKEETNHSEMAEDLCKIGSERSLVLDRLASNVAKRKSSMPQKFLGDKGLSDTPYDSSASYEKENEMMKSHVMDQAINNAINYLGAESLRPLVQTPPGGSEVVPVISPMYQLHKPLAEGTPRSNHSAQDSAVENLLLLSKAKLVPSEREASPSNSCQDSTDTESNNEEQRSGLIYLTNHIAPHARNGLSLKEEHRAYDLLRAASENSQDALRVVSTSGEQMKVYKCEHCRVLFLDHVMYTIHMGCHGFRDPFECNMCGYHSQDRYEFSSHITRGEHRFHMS
T2 sequence (Q96SW2 whole entry): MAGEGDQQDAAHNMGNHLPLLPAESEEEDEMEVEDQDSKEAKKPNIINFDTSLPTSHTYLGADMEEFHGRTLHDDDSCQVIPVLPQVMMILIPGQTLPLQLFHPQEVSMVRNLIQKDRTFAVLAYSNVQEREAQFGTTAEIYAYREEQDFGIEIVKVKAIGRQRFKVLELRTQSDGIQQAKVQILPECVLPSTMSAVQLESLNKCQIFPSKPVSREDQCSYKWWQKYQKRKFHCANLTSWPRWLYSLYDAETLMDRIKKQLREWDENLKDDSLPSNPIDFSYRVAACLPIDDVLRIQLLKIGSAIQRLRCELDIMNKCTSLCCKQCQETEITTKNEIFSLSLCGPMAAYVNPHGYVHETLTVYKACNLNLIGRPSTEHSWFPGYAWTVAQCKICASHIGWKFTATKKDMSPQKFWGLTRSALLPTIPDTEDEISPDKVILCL
T2 sequence (Q16531 whole entry partner): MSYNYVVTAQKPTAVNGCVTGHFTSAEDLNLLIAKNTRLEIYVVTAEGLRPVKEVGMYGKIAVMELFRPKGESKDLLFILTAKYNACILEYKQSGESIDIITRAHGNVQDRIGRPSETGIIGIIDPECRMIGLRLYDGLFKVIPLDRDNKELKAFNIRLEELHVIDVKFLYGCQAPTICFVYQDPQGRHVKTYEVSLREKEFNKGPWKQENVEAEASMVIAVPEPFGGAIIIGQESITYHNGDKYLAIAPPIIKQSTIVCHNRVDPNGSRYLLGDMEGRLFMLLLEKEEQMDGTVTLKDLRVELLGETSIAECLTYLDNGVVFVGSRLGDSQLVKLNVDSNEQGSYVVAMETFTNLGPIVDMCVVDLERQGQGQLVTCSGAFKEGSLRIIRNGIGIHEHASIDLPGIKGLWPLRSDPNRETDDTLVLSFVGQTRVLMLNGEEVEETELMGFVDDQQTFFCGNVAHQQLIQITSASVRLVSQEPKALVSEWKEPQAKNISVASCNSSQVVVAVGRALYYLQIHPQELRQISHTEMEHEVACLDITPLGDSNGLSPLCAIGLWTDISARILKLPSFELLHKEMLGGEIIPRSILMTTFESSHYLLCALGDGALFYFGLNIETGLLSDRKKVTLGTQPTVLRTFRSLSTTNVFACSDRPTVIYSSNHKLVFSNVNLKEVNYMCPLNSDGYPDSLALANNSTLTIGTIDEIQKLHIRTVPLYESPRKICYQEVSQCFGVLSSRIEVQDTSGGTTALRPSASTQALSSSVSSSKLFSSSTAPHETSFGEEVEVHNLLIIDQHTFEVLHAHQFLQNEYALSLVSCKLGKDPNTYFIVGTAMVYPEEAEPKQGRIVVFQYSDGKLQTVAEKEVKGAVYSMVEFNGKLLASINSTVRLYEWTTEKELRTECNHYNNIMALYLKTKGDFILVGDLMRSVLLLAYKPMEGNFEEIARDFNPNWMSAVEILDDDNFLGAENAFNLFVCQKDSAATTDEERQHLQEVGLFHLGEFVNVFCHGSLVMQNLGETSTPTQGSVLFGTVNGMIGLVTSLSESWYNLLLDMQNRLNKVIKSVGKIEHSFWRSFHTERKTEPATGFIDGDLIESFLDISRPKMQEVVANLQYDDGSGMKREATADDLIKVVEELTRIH

O=C1CCC(N2C(=O)c3cccc(NCC(=O)N4CCN(c5ccc(Nc6nccc(Oc7ccccc7)n6)cc5)CC4)c3C2=O)C(=O)N1 (stereo not shown) [PS-2, 2-(2,6-Dioxopiperidin-3-yl)-4-((2-oxo-2-(4-(4-((4-phenoxypyrimidin-2-yl)amino)phenyl)piperazin-1-yl)ethyl)amino)isoindoline-1,3-dione]
BTK degradation (result in words) (BTK [1]): potently induces BTK degradation | BTK protein level change (BTK [2]): downregulated | degradation of IKZF1 (IKZF1): ~50% | BTK degradation (result in words) (BTK [3]): potent BTK degradation
